From patent US6844353B2, “Fungicidal properties of sampangine and its analogs to agriculturally important fungal plant pathogens” (The United States of America as represented by the …, priority 2003, dated 2005)
Where two headings read alike, the source gives them in different places.

How the values were obtained:
Assay in all cases: 96-well microtiter plate assay, fungal growth inhibition
[1] = test system: C. gloeosporioides; format: cell-based, Colletotrichum gloeosporioides; settings: for Percent inhibition−Percent Stimulation±SEM: C. gloeosporioides; for inhibition at 0.3 µM / inhibition at 3 µM / inhibition at 30 µM: Colletotrichum gloeosporioides, read-out: Percent inhibition−Percent Stimulation±SEM
From the text: (§1) Pathogen production. Isolates of Colletotrichum acutatum Simmonds, Colletotrichum fragariae Brooks, and Colletotrichum gloeosporioides (Penz.) Penz. & Sacc. in Penz. were obtained from B. J. Smith, USDA, ARS, Small Fruit Research Station, Poplarville, Miss. Colletotrichum fragariae (isolate CF63), C. acutatum (isolate CAGoff), and C. gloeosporioides (isolate CG162) were used for all pathogen and bioautography studies. Isolate CF63 is one of the most virulent isolates at infecting strawberry plants and inducing both crown and fruit rot (Smith and Black, 1990). CF63, CAGoff, and CG162 were used as standard test isolates because of our extensive knowledge of these isolates and their known fungicide sensitivity profiles in both bioautography and microtiter formats. The three Colletotrichum species were isolated from strawberry (Fragaria x ananassa Duchesne). Botrytis cinerea Pers.: Fr, was isolated from commercial grape (Vitis vinifera L.) and Fusarium oxysporum Schlechtend: Fr from orchid (Cynoches sp.). Phomopsis viticola (Sacc.) and P. obscurans (Ellis & Everh.) Sutton were from Mike A. Ellis, Ohio State University, Wooster, Ohio. Fungi were grown on potato-dextrose agar (PDA, Difco, Detroit, Mich.) in 9 cm petri dishes and incubated in a growth chamber at 24±2° C. and under cool-white fluorescent lights ([…]·m^−2·sec^−1 light) with 12 hour photoperiod.
(§2) Inoculum preparation. Conidia were harvested from 7-10 day-old cultures by flooding plates with 5 mL of sterile distilled water and dislodging conidia by softly brushing the colonies with an L-shaped glass rod. Conidial suspensions were filtered through sterile miracloth (Calbiochem-Novabiochem Corp., La Jolla, Calif.) to remove mycelia. Conidia concentrations were determined photometrically, from a standard curve based on the percent of transmittance (% T) at 625 nm and suspensions were then adjusted with sterile distilled water to a concentration of 1.0×10^6 conidia/mL.
(§3) Microtiter assay. A standardized 96-well microtiter plate assay developed for discovery of natural product fungicidal agents was used to evaluate naturally occurring antifungal agents from Macaranga monanara. A 96-well microtiter assay was used to determine sensitivity of B. cinerea, C. acutatum, C. fragariae, C. gloeosporioides, F. oxysporum, Phomopsis viticola, and P. obscurans to the various antifungal agents in comparison with known fungicidal standards. Vinclozolin, captan, and thiabendazole, which represent three different modes of action, were used as standards in this experiment. Each fungus was challenged in a dose-response format using test compounds where the final treatment concentrations were 0.3, 3.0 and 30.0 μM. Microtiter plates (Nunc MicroWell, untreated; Roskilde, Denmark) were covered with a plastic lid and incubated in a growth chamber as described previously for fungal growth. Growth was then evaluated by measuring absorbance of each well at 620 nm using a microplate photometer (Packard Spectra Count, Packard Instrument Co., Downers Grove, Ill.). Microtiter plates (Nunc MicroWell, untreated; Roskilde, Denmark) were covered with a plastic lid and incubated in a growth chamber at 24±1° C. and 12 hour photoperiod under 60±5 μmol light. Growth was then evaluated by measuring absorbance of each well at 620 nm using a microplate photometer (Packard Spectra Count, Packard Instrument Co., Downers Grove, Ill.).
(§4) Microbioassy Experimental Design. Chemical sensitivity each of B. cinerea, C. acutatum, C. fragariae, C. gloeosporiodes, F. oxysporum, Phomopsis viticola, and P. obscurans was evaluated using 96-well plate microbioassay format. Each chemical was evaluated in duplicate at each dose (0.3, 3.0 and 30.0 μM). […]

[2] = test system: C. fragariae; format: cell-based, Colletotrichum fragariae; settings: for Percent inhibition−Percent Stimulation±SEM: C. fragariae; for inhibition at 0.3 µM / inhibition at 3 µM / inhibition at 30 µM: Colletotrichum fragariae, read-out: Percent inhibition−Percent Stimulation±SEM
From the text: as §1, §2, §3, §4

[3] = test system: C. acutatum; format: cell-based, Colletotrichum acutatum; settings: for Percent inhibition−Percent Stimulation±SEM: C. acutatum; for inhibition at 0.3 µM / inhibition at 3 µM / inhibition at 30 µM: Colletotrichum acutatum, read-out: Percent inhibition−Percent Stimulation±SEM
From the text: as §1, §2, §3, §4

[4] = test system: F. oxysporum; format: cell-based, Fusarium oxysporum; settings: for Percent inhibition−Percent Stimulation±SEM: F. oxysporum; for inhibition at 0.3 µM / inhibition at 3 µM / inhibition at 30 µM: Fusarium oxysporum, read-out: Percent inhibition−Percent Stimulation±SEM
From the text: as §1, §2, §3, §4

[5] = test system: B. cinerea; format: cell-based, Botrytis cinerea; settings: for Percent inhibition−Percent Stimulation±SEM: B. cinerea; for inhibition at 0.3 µM / inhibition at 3 µM / inhibition at 30 µM: Botrytis cinerea, read-out: Percent inhibition−Percent Stimulation±SEM
From the text: as §1, §2, §3, §4

Structure (SMILES): O=C1c2ccccc2-c2nccc3c2c1nc1ccccc13 [Benzo[4,5]sampangine, benzo[4,5]sampangine]
- Percent inhibition−Percent Stimulation±SEM ([1]; 0.3 μM, 48 hrs): −100.0 ± 1.0%
- Percent inhibition−Percent Stimulation±SEM ([1]; 0.3 μM, 72 hrs): −100.0 ± 0.3%
- Percent inhibition−Percent Stimulation±SEM ([1]; 3.0 μM, 48 hrs): −98.6 ± 1.1%
- Percent inhibition−Percent Stimulation±SEM ([1]; 3.0 μM, 72 hrs): −99.7 ± 0.4%
- Percent inhibition−Percent Stimulation±SEM ([1]; 30 μM, 48 hrs): −100.0 ± 1.8%
- Percent inhibition−Percent Stimulation±SEM ([1]; 30 μM, 72 hrs): −100.0 ± 0.9%
- Percent inhibition−Percent Stimulation±SEM ([2]; 0.3 μM, 48 hrs): −38.4 ± 6.1%
- Percent inhibition−Percent Stimulation±SEM ([2]; 0.3 μM, 72 hrs): −19.8 ± 7.7%
- Percent inhibition−Percent Stimulation±SEM ([2]; 3.0 μM, 48 hrs): −72.4 ± 8.5%
- Percent inhibition−Percent Stimulation±SEM ([2]; 3.0 μM, 72 hrs): −54.7 ± 11.2%
- Percent inhibition−Percent Stimulation±SEM ([2]; 30 μM, 48 hrs): −52.9 ± 6.5%
- Percent inhibition−Percent Stimulation±SEM ([2]; 30 μM, 72 hrs): −29.4 ± 6.8%
- Percent inhibition−Percent Stimulation±SEM ([3]; 0.3 μM, 48 hrs): −30.5 ± 10.2%
- Percent inhibition−Percent Stimulation±SEM ([3]; 0.3 μM, 72 hrs): −25.9 ± 8.0%
- Percent inhibition−Percent Stimulation±SEM ([3]; 3.0 μM, 48 hrs): −74.2 ± 6.3%
- Percent inhibition−Percent Stimulation±SEM ([3]; 3.0 μM, 72 hrs): −46.2 ± 5.2%
- Percent inhibition−Percent Stimulation±SEM ([3]; 30 μM, 48 hrs): −57.0 ± 10.0%
- Percent inhibition−Percent Stimulation±SEM ([3]; 30 μM, 72 hrs): −38.9 ± 5.2%
- Percent inhibition−Percent Stimulation±SEM ([4]; 0.3 μM, 48 hrs): −48.2 ± 4.4%
- Percent inhibition−Percent Stimulation±SEM ([4]; 0.3 μM, 72 hrs): −17.1 ± 2.0%
- Percent inhibition−Percent Stimulation±SEM ([4]; 3.0 μM, 48 hrs): −77.7 ± 5.7%
- Percent inhibition−Percent Stimulation±SEM ([4]; 3.0 μM, 72 hrs): −27.2 ± 6.2%
- Percent inhibition−Percent Stimulation±SEM ([4]; 30 μM, 48 hrs): −57.9 ± 3.2%
- Percent inhibition−Percent Stimulation±SEM ([4]; 30 μM, 72 hrs): −27.2 ± 1.9%
- Percent inhibition−Percent Stimulation±SEM ([5]; 0.3 μM, 48 hrs): −70.2 ± 5.8%
- Percent inhibition−Percent Stimulation±SEM ([5]; 0.3 μM, 72 hrs): −55.2 ± 8.1%
- Percent inhibition−Percent Stimulation±SEM ([5]; 3.0 μM, 48 hrs): −78.0 ± 3.6%
- Percent inhibition−Percent Stimulation±SEM ([5]; 3.0 μM, 72 hrs): −46.7 ± 10.2%
- Percent inhibition−Percent Stimulation±SEM ([5]; 30 μM, 48 hrs): −99.2 ± 19.4%
- Percent inhibition−Percent Stimulation±SEM ([5]; 30 μM, 72 hrs): −22.8 ± 14.7%

Structure (SMILES): O=C1C2CC=CCC2C(=O)N1SC(Cl)(Cl)Cl (stereo not drawn) [Captan]
- inhibition at 0.3 µM ([1]; 48 h): -4.4 ± 4.4%
- inhibition at 3 µM ([1]; 48 h): 96.3 ± 2.1%
- inhibition at 30 µM ([1]; 48 h): 99.7 ± 0.6%
- inhibition at 0.3 µM ([1]; 72 h): -15.3 ± 2.1%
- inhibition at 3 µM ([1]; 72 h): 97.9 ± 0.7%
- inhibition at 30 µM ([1]; 72 h): 100 ± 0.3%
- inhibition at 0.3 µM ([2]; 48 h): -20.5 ± 9.5%
- inhibition at 3 µM ([2]; 48 h): 98.1 ± 0.6%
- inhibition at 30 µM ([2]; 48 h): 98.8 ± 0.8%
- inhibition at 0.3 µM ([2]; 72 h): -14.9 ± 2.2%
- inhibition at 3 µM ([2]; 72 h): 97.8 ± 1.6%
- inhibition at 30 µM ([2]; 72 h): 99.5 ± 0.3%
- inhibition at 0.3 µM ([3]; 48 h): -2.7 ± 2.4%
- inhibition at 3 µM ([3]; 48 h): 98.8 ± 0.4%
- inhibition at 30 µM ([3]; 48 h): 99.5 ± 0.3%
- inhibition at 0.3 µM ([3]; 72 h): -9.5 ± 1.5%
- inhibition at 3 µM ([3]; 72 h): 94.8 ± 0.2%
- inhibition at 30 µM ([3]; 72 h): 99.6 ± 0.2%
- inhibition at 0.3 µM ([4]; 48 h): 2.8 ± 4.7%
- inhibition at 3 µM ([4]; 48 h): 77.2 ± 7.2%
- inhibition at 30 µM ([4]; 48 h): 100 ± 0.4%
- inhibition at 0.3 µM ([4]; 72 h): -4.7 ± 2.1%
- inhibition at 3 µM ([4]; 72 h): 24.1 ± 6.5%
- inhibition at 30 µM ([4]; 72 h): 99.8 ± 0.2%
- inhibition at 0.3 µM ([5]; 48 h): -55.9 ± 24.7%
- inhibition at 3 µM ([5]; 48 h): 38.4 ± 23.5%
- inhibition at 30 µM ([5]; 48 h): 58 ± 23.2%
- inhibition at 0.3 µM ([5]; 72 h): 40.7 ± 16.3%
- inhibition at 3 µM ([5]; 72 h): 54.6 ± 22.9%
- inhibition at 30 µM ([5]; 72 h): 54 ± 17.9%
